The values that follow come from patent publication US8865745B2, “Pyrazolone derivatives as PDE4 inhibitors” (Takeda GmbH, priority 2007, dated 2014).

One data set addresses PDE4B1 (Homo sapiens (Human), UniProt Q07343). As to the kind of experiment: Inhibition of PDE4 activity, [3H]cAMP SPA enzyme assay with recombinant PDE4B1. Particulars: recombinant PDE4B1 expressed in SF21 cells, 0.5 μM cAMP, 37° C. In kind it is biochemical. On the procedure: Method for Measuring Inhibition of PDE4 Activity
The PDE4B1 (GB no. L20966) was a gift of Prof. M. Conti (Stanford University, USA). It was amplified from the original plasmid (pCMV5) via PCR with primers Rb18 (5′-[…]-3′) and Rb10 (5′-[…]-3′) and cloned into the pCR-Bac vector (Invitrogen, Groningen, NL).
The recombinant baculovirus was prepared by means of homologous recombination in SF9 insect cells. The expression plasmids were cotransfected with Baculo-Gold DNA (Pharmingen, Hamburg) using a standard protocol (Pharmingen, Hamburg). Wt virus-free recombinant virus supernatants were selected using plaque assay methods. After that, high-titre virus supernatants were prepared by amplifying 3 times. PDE4B1 was expressed in SF21 cells by infecting 2×10^6 cells/ml with an MOI (multiplicity of infection) between 1 and 10 in the serum-free medium Insect Express Sf9-S2 (PAA, Pasching, Austria). The cells were cultured at 28° C. for 48-72 hours, after which they were pelleted for 5-10 min at 1000×g and 4° C.
The SF21 insect cells were resuspended, at a concentration of approx. 10^7 cells/ml, in ice-cold (4° C.) homogenization buffer (20 mM Tris, pH 8.2, containing the following additions: 140 mM NaCl, 3.8 mM KCl, 1 mM EGTA, 1 mM MgCl2, 10 mM β-mercaptoethanol, 2 mM benzamidine, 0.4 mM Pefablock, […] leupeptin, 10 μM pepstatin A, 5 μM trypsin inhibitor) and disrupted by ultrasonication. The homogenate was then centrifuged for 10 min at 1000×g and the supernatant was stored at −80° C. until subsequent use (see below). The protein content was determined by the Bradford method (BioRad, Munich) using BSA as the standard.
PDE4B1 activity was inhibited by the compounds according to the invention in a modified SPA (scintillation proximity assay) test, supplied by Amersham Biosciences (see procedural instructions “phosphodiesterase [3H]cAMP SPA enzyme assay, code TRKQ 7090”), carried out in 96-well microtitre plates (MTP's). The test volume is 100 μl and contains 20 mM Tris buffer (pH 7.4), 0.1 mg/ml of BSA, 5 mM Mg^2+, 0.5 μM cAMP (including about 50,000 cpm of [3H]cAMP), 1 μl of the respective substance dilution in DMSO and sufficient recombinant PDE (1000×g supernatant, see above) to ensure that 10-20% of the cAMP is converted under the said experimental conditions. […] After a preincubation of 5 min at 37° C., the reaction is started by adding the substrate (cAMP) and the assays are incubated for a further 15 min; after that, they are stopped by adding SPA beads (50 μl). In accordance with the manufacturer's instructions, the SPA beads had previously been resuspended in water, but were then diluted 1:3 (v/v) in water; the diluted solution also contains 3 mM IBMX to ensure a complete PDE activity stop. After the beads have been sedimented (>30 min), the MTP's are analyzed in commercially available luminescence detection devices. The corresponding IC50 values of the compounds for the inhibition of […] activity are determined from the concentration-effect curves by means of non-linear regression.
The inhibitory values determined for the compounds according to the invention follow from the following Table 1, in which the numbers of the compounds correspond to the numbers of the examples.

By melting point is commonly meant the temperature of the solid-liquid transition.

Sequence of PDE4B1 (Q07343 whole entry): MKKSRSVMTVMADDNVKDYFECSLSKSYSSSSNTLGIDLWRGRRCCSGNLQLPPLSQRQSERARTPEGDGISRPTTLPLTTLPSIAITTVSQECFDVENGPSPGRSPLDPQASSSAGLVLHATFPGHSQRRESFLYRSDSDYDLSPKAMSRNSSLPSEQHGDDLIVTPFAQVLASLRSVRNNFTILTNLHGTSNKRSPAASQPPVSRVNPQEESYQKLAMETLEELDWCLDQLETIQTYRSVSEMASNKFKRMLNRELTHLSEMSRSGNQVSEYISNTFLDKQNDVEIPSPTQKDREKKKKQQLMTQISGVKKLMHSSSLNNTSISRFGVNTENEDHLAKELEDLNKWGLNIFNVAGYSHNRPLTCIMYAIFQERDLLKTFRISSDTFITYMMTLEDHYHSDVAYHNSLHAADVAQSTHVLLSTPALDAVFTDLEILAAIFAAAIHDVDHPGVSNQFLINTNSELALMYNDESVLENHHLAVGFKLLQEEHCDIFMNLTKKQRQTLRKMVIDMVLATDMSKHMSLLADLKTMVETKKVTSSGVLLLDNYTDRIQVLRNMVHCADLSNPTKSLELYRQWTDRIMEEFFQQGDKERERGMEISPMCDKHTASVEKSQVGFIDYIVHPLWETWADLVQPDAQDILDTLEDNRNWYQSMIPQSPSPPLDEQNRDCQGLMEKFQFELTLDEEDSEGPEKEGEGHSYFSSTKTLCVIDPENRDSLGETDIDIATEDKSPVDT

`COc1ccc(C2=NN(C3CCN(C(=O)CN4C(=O)CCC4=O)CC3)C(=O)C2(C)C)cc1OCC1CC1` [Compound 5, 1-[2-(4-{3-[3-(cyclopropylmethoxy)-4-methoxyphenyl]-4,4-dimethyl-5-oxo-4,5-dihydro-1H-pyrazol-1-yl}piperidin-1-yl)-2-oxoethyl]pyrrolidine-2,5-dione]: the melting point lay within 129 to 131 °C. For the same compound, on PDE4B1, the “PDE4 Inhibition [measured as −logIC50 (mol/l)]” value is recorded as 7.15 −logIC50 (mol/l).
The compound `COc1ccc(C2=NN(C3CCN(C(=O)CCN4C(=O)CCC4=O)CC3)C(=O)C2(C)C)cc1OC` [Compound 19, 1-(3-{4-[3-(3,4-Dimethoxy-phenyl)-4,4-dimethyl-5-oxo-4,5-dihydro-pyrazol-1-yl]-piperidin-1-yl}-3-oxo-propyl)-pyrrolidine-2,5-dione] showed a melting point of 207 to 209 °C. Further, the “PDE4 Inhibition [measured as −logIC50 (mol/l)]” value on PDE4B1 is on record as 7.48 −logIC50 (mol/l).
Turning to `CCOc1ccc(C2=NN(C3CCN(C(=O)CN4C(=O)CCC4=O)CC3)C(=O)C2(C)C)cc1OCC` [Compound 3, 1-(2-{-4-[3-(3,4-diethoxyphenyl)-4,4-dimethyl-5-oxo-4,5-dihydro-1H-pyrazol-1-yl]piperidin-1-yl}-2-oxoethyl)pyrrolidine-2,5-dione], on PDE4B1, the “PDE4 Inhibition [measured as −logIC50 (mol/l)]” value is recorded as 7.75 −logIC50 (mol/l).
On to `COc1ccc(C2=NN(C3CCN(C(=O)CN4C(=O)CCC4=O)CC3)C(=O)C2(C)C)cc1OC` [Compound 2, 1-(2-{4-[3-(3,4-dimethoxyphenyl)-4,4-dimethyl-5-oxo-4,5-dihydro-1H-pyrazol-1-yl]piperidin-1-yl}-2-oxoethyl)pyrrolidine-2,5-dione], for which the melting point lay in the range of 218 to 220 °C. Moreover, the “PDE4 Inhibition [measured as −logIC50 (mol/l)]” value on PDE4B1 is reported as 8.09 −logIC50 (mol/l).
Take `COc1ccc(C2=NN(C3CCN(C(=O)CN4C(=O)CCCC4=O)CC3)C(=O)C2(C)C)cc1OC` [Compound 15, 1-(2-{4-[3-(3,4-Dimethoxy-phenyl)-4,4-dimethyl-5-oxo-4,5-dihydro-pyrazol-1-yl]-piperidin-1-yl}-2-oxo-ethyl)-piperidine-2,6-dione]: the “PDE4 Inhibition [measured as −logIC50 (mol/l)]” value at PDE4B1 was 7.90 −logIC50 (mol/l).
With `CCCC1(C)C(=O)N(C2CCN(C(=O)CN3C(=O)CCC3=O)CC2)N=C1c1ccc(OC)c(OC)c1` (centres unmarked) [Compound 11, 1-(2-{4-[3-(3,4-dimethoxyphenyl)-4-methyl-5-oxo-4-propyl-4,5-dihydro-1H-pyrazol-1-yl]piperidin-1-yl}-2-oxoethyl)pyrrolidine-2,5-dione], on PDE4B1, the “PDE4 Inhibition [measured as −logIC50 (mol/l)]” value is listed as 8.08 −logIC50 (mol/l).
The compound `COc1ccc(C2=NN(C3CCN(C(=O)CN4C(=O)CS(=O)(=O)CC4=O)CC3)C(=O)C2(C)C)cc1OC` [Compound 18, 4-(2-{-4-[3-(3,4-dimethoxyphenyl)-4,4-dimethyl-5-oxo-4,5-dihydro-1H-pyrazol-1-yl]piperidin-1-yl}-2-oxoethyl)thiomorpholine-3,5-dione 1,1-dioxide] returned a melting point of 146 to 148 °C. In addition, the “PDE4 Inhibition [measured as −logIC50 (mol/l)]” value on PDE4B1 is listed as 8.42 −logIC50 (mol/l).
As for `COc1ccc(C2=NN(C3CCN(C(=O)CN4C(=O)CCC4=O)CC3)C(=O)C2(C)C)cc1OCC(F)(F)F` [Compound 6, 1-[2-(4-{3-[4-methoxy-3-(2,2,2-trifluoroethoxy)phenyl]-4,4-dimethyl-5-oxo-4,5-dihydro-1H-pyrazol-1-yl}piperidin-1-yl)-2-oxoethyl]pyrrolidine-2,5-dione], on PDE4B1, the “PDE4 Inhibition [measured as −logIC50 (mol/l)]” value is recorded as 6.84 −logIC50 (mol/l).
For the compound `COc1ccc(C2=NN(C3CCN(C(=O)CN4C(=O)CCC4=O)CC3)C(=O)C2(C)C)c2c1OC(C)(C)C2` [Compound 8], the “PDE4 Inhibition [measured as −logIC50 (mol/l)]” value on PDE4B1 is on record as 8.53 −logIC50 (mol/l).
As for `CCC1(C)C(=O)N(C2CCN(C(=O)CN3C(=O)CCC3=O)CC2)N=C1c1ccc(OC)c(OC)c1` (centres unmarked) [Compound 12, 1-(2-{4-[3-(3,4-dimethoxyphenyl)-4-ethyl-4-methyl-5-oxo-4,5-dihydro-1H-pyrazol-1-yl]piperidin-1-yl}-2-oxoethyl)pyrrolidine-2,5-dione], on PDE4B1, the “PDE4 Inhibition [measured as −logIC50 (mol/l)]” value is given as 7.46 −logIC50 (mol/l).
As for `COc1ccc(C2=NN(C3CCN(C(=O)CN4CCCC4=O)CC3)C(=O)C2(C)C)cc1OC` [Compound 16, 5-(3,4-dimethoxyphenyl)-4,4-dimethyl-2-{1-[(2-oxopyrrolidin-1-yl)acetyl]piperidin-4-yl}-2,4-dihydro-3H-pyrazol-3-one], the melting point was in the range of 125 to 131 °C. In addition, the “PDE4 Inhibition [measured as −logIC50 (mol/l)]” value on PDE4B1 was 7.48 −logIC50 (mol/l).
As for `COc1ccc(C2=NN(C3CCN(C(=O)CN4C(=O)c5ccccc5C4=O)CC3)C(=O)C2(C)C)cc1OC` [Compound 14, 2-(2-{4-[3-(3,4-dimethoxyphenyl)-4,4-dimethyl-5-oxo-4,5-dihydro-1H-pyrazol-1-yl]piperidin-1-yl}-2-oxoethyl)-1H-isoindole-1,3(2H)-dione], on PDE4B1, the “PDE4 Inhibition [measured as −logIC50 (mol/l)]” value is on record as 9.06 −logIC50 (mol/l).
`COc1ccc(C2=NN(C3CCN(C(=O)CN4C(=O)Cc5ccccc54)CC3)C(=O)C2(C)C)cc1OC` [Compound 20, 1-(2-{4-[3-(3,4-Dimethoxy-phenyl)-4,4-dimethyl-5-oxo-4,5-dihydro-pyrazol-1-yl]-piperidin-1-yl}-2-oxo-ethyl)-1,3-dihydro-2H-indol-2-one] showed a melting point of 178 °C. In addition, at PDE4B1, the “PDE4 Inhibition [measured as −logIC50 (mol/l)]” value is reported as 8.24 −logIC50 (mol/l).
Take `COc1ccc(C2=NN(C3CCN(C(=O)CN4C(=O)COCC4=O)CC3)C(=O)C2(C)C)cc1OC` [Compound 1, 4-(2-{4-[3-(3,4-dimethoxyphenyl)-4,4-dimethyl-5-oxo-4,5-dihydro-1H-pyrazol-1-yl]piperidin-1-yl}-2-oxoethyl)morpholine-3,5-dione]: the melting point is 156 to 157 °C. Also, the “PDE4 Inhibition [measured as −logIC50 (mol/l)]” value on PDE4B1 is reported as 8.29 −logIC50 (mol/l).
In the case of `COc1ccc(C2=NN(C3CCN(C(=O)CN4C(=O)CCC4=O)CC3)C(=O)C23CCCC3)cc1OC` [Compound 13, 1-(2-{4-[4-(3,4-dimethoxyphenyl)-1-oxo-2,3-diazaspiro[4.4]non-3-en-2-yl]piperidin-1-yl}-2-oxoethyl)pyrrolidine-2,5-dione], the “PDE4 Inhibition [measured as −logIC50 (mol/l)]” value on PDE4B1 is given as 7.79 −logIC50 (mol/l).
The same measure, in the same setting: the figure for `COc1ccc(C2=NN(C3CCN(C(=O)CN4C(=O)CCC4=O)CC3)C(=O)C2(C)C)c2c1OC1(CCCC1)C2` [Compound 9] is 8.23 −logIC50 (mol/l).
Same read-out and setting: the figure for `CCOc1cc(C2=NN(C3CCN(C(=O)CN4C(=O)CCC4=O)CC3)C(=O)C2(C)C)ccc1OC` [Compound 7, 1-(2-{4-[3-(3-ethoxy-4-methoxyphenyl)-4,4-dimethyl-5-oxo-4,5-dihydro-1H-pyrazol-1-yl]piperidin-1-yl}-2-oxoethyl)pyrrolidine-2,5-dione] is 7.65 −logIC50 (mol/l); for `CC1(C)C(=O)N(C2CCN(C(=O)CN3C(=O)CCC3=O)CC2)N=C1c1ccc(OC(F)F)c(OCC2CC2)c1` [Compound 4, 1-[2-(4-{3-[3-(cyclopropylmethoxy)-4-(difluoromethoxy)phenyl]-4,4-dimethyl-5-oxo-4,5-dihydro-1H-pyrazol-1-yl}piperidin-1-yl)-2-oxoethyl]pyrrolidine-2,5-dione] it is 7.74 −logIC50 (mol/l).
`COc1ccc(C2=NN(C3CCN(C(=O)CN4C(=O)CSCC4=O)CC3)C(=O)C2(C)C)cc1OC` [Compound 17, 4-(2-{4-[3-(3,4-dimethoxyphenyl)-4,4-dimethyl-5-oxo-4,5-dihydro-1′-1-pyrazol-1-yl]piperidin-1-yl}-2-oxoethyl)thiomorpholine-3,5-dione]: at PDE4B1, the “PDE4 Inhibition [measured as −logIC50 (mol/l)]” value is given as 8.27 −logIC50 (mol/l).
